Assays:
Format in all cases: binding, human
CXCR4 D97N = assay: 12G5 antibody competition, 293T cells transfected with CXCR4 D97N; details: IC50 on CXCR4 D97N relative to wt
Protocol: (§1) Fig. 4 The interactions of EPI-X4 and the EPI-X4 derivatives WSC02 and JM#21 with point-mutated CXCR4 were assessed by an antibody competition assay. Amino acid substitutions were introduced in the sequence of CXCR4 by site-directed mutagenesis, cloned into an IRES-eGFP expression vector, and transfected into 293 T cells. Afterward, cells were incubated with serially diluted EPI-X4 (a, b), WSC02 (c, d), or JM#21 (e, f) in presence of a constant concentration of CXCR4 specific antibody (clone 12G5). After 2 h, bound antibody was analyzed by flow cytometry. a, c, e) Representative dose-dependent replacement of 12G5 antibody by peptides. b, d, f) IC50 values were calculated by nonlinear regression. Shown are data derived from at least three individual experiments ± SEM. IC50 values were set to 1000 µM (EPI-X4 and WSC02) or 100 µM (JM#21) if the value exceeds the maximally used concentration. *p ≤ 0.05, ***p ≤ 0.001 (one-way ANOVA for comparison with wt). For IC50 values see Table 1. For all binding curves see also Fig. S8.
(§2) Mutated CXCR4 constructs were transfected into 293 T cells that have a very low endogenous expression level of wild-type CXCR4. Transfected cells were then analyzed for CXCR4 surface expression (Fig. S5a) and EPI-X4 binding using a flow cytometry-based antibody competition assay (Fig. S5b, c)[33]. […]

CXCR4 E288D = assay: 12G5 antibody competition, 293T cells transfected with CXCR4 E288D; details: IC50 on CXCR4 E288D relative to wt
Description: The human CXCR4 gene (isoform 1 or b, NCBI Reference Sequence: NP_003458.1, UniProtKB/Swiss-Prot: P61073-1) was amplified by PCR of the pTrip_GFP_CXCR4 vector (kindly provided by Prof. Françoise Bachelerie, Paris, France) by generating the flanking single cutter sites NheI and HindIII. The PCR fragment was ligated in the empty pcDNA3.1(+) vector (Life Technologies GmbH, Darmstadt). Afterward, the IRES-eGFP cassette of the proviral clone pBR_NL4-3_IRES-eGFP[44] was PCR-amplified with EcoRI and NotI single cutter sites and ligated in the multiple cloning site after CXCR4. […]
To test for peptide interaction with CXCR4, 50,000 SupT1 cells were seeded in 96-well microtiter plates in PBS supplemented with 1% FCS, the buffer was removed and cells were precooled at 4 °C. […] Afterward, the unbound antibody was removed and cells analyzed by flow cytometry. The mean fluorescence intensity (MFI) was normalized to the PBS control. […] IC50 values were determined by nonlinear regression using GraphPad Prism. […] For analysis, after flow cytometry, eGFP expressing cells were gated and further analyzed. CXCR4 expression levels and antibody binding to CXCR4 was determined using the CXCR4 antibody clones 12G5 (binds to the second ECL loop) (#555976, BD PharmingenTM) and 1D9 (binds to the N-terminus) (#551510, BD PharmingenTM) (Supplement Figure S5). […]

CXCR4 D187E = assay: 12G5 antibody competition, 293T cells transfected with CXCR4 D187E; details: IC50 on CXCR4 D187E relative to wt
Protocol: as §1, §2

Sequence: IVRWSKKVPCVS [WSC02, first-generation C-terminally truncated 12-mer derivative of EPI-X4 with four substitutions]
- Fold change (CXCR4 D97N): 466
- Fold change (CXCR4 E288D): 74
- Fold change (CXCR4 D187E): 0.4

From publication PMC8458281, “Computational modeling and experimental validation of the EPI-X4/CXCR4 complex allows rational design of small peptide antagonists” (Communications Biology, 2021)
